In US20240018129A1, “COMPOUNDS AS PU. 1 INHIBITORS” (PEKING UNIVERSITY, priority 2020, published 2024):

Tests used:
PU.1 [1] = target: T1, PU.1 (Mus musculus, UniProt P17433); assay: q-PCR of TIM-3 expression in Blast-PU.1 cells (PU.1 inhibition potency); format: cell-based; details: 10 μM, Blast-PU.1 cells, 24 h treatment, q-PCR
T1 construct: EGFP (from 'PU.1-EGFP-vector'); expressed in transfected cells
Text: An acute T cell lymphoblastic leukemia (T-ALL) disease model was used to evaluate the effect of the newly synthesized compounds on PU.1 inhibition. Pten, a famous tumor suppressor gene, was […] deleted in mouse hematopoietic stem cells and their differentiated progeny, and this would eventually lead to a progressive T-ALL in about two months from born. It is believed that immune checkpoint T cell immunoglobulin mucin-3 (TIM-3), a surface marker for the isolation of pure leukemia-initiating cells (LICs), is transcriptionally regulated by transcription factor PU.1 in the Pten-null T-ALL model. Therefore, the expression level of TIM-3 was detected and quantified to characterize the inhibition potency of the compounds after 24 h treatment of graded concentrations of compounds. Blast cells were transfected with either PU.1-EGFP-vector or EGFP-vector to yield stable cell lines blast-PU.1 and blast-EGFP, respectively. These cell lines were used for compound testing in vitro. Compounds DB1976 and DB2115 were tested as well for comparison. Blast-PU.1 and blast-EGFP are the ideal cell lines for compounds testing in vitro, since they are T-ALL blast cells with […] TIM-3 and PU.1 expression level.

[2] = system: bleomycin-induced skin fibrosis; assay: bleomycin-induced skin fibrosis, preventive and therapeutic models; format: in vivo, mouse
Experimental: Methods: To evaluate the preventive and therapeutic effects of compound I-1 on skin fibrosis, bleomycin was used to establish two animal models of skin fibrosis with different drug intervention (6-8 weeks, C57BL/6, male). Skin fibrosis was induced by local injection of bleomycin (0.5 mg/mL, 0.1 ml/mouse) in a skin defined area (˜1 cm^2), where the hair was removed in advance, at the upper back every other day. Subcutaneous saline injections served as controls. (I) Preventive model of bleomycin-induced skin fibrosis: Compound I-1, positive control DB1976, or vehicle (saline) were injected i.p. simultaneously with bleomycin for 4 weeks (FIG. 3a). (II) Therapeutic model of bleomycin-induced skin fibrosis: Mice were pre-charged with bleomycin for 3 weeks to induce skin fibrosis, then treated with compound I-1, positive control DB1976, or vehicle (saline) for another 3 weeks, total time is 6 weeks after the first bleomycin treatment (FIG. 30. After the last day of treatment of both models, mice were fasted overnight and euthanized. Part of the skin was fixed with paraformaldehyde after fully flat on a foil, embedded with paraffin, and then sliced for H&E, Sirius red and Masson staining to check pathological features. The epidermal thickness of each sample was calculated quantitatively with image J. Another part of skin was collected and stored at −80° C. after liquid nitrogen quick-freezing, RNA isolation (Code.R6934, OMEGA, USA), first cDNA reverse (Code.AT341, TransGen, China), SYBR mix (Code.AQ601, TransGen, China) for Q-PCR (LightCycler® 96, Roche) to verify several fibrosis-related genes mRNA level, such as, Col1a1 and Col1a2.

[3] = system: bleomycin-induced pulmonary fibrosis; assay: bleomycin-induced pulmonary fibrosis, preventive and therapeutic models; format: in vivo, mouse; details: preventive model, 5mpk i.p. for 4 weeks after single bleomycin injection
Experimental: Methods: To evaluate the preventive and therapeutic effects of compound I-1 on pulmonary fibrosis, bleomycin was used to establish two animal models of pulmonary fibrosis with different drug intervention (6-8 weeks, C57BL/6, male). Bleomycin (0.025U, Code.D11063, OKA, China) was injected by a single intratracheal application. Equal volumes of sterilized saline served as a control. (I) Preventive model of bleomycin-induced pulmonary fibrosis. Compounds compound I-1, positive control DB1976, or vehicle (saline) were treated (injected intraperitoneally, i.p.) immediately after single bleomycin injection for 4 weeks (FIG. 4a). (II) Therapeutic model of bleomycin-induced pulmonary fibrosis. Mice were pre-charged with bleomycin for 11 days to induced pulmonary fibrosis, then treated with compounds compound I-1, positive control DB1976, or vehicle (saline) for 17 days, total time is 4 weeks after bleomycin treatment (FIG. 4h). After the last day of treatment of both models, mice were fasted overnight and euthanized. A part of lung was fixed with paraformaldehyde, embedded with paraffin, and then sliced for H&E and Sirius red staining to check pathological features, and Ashcroft scores. Hubner, R. H. et al. Biotechniques 44, 507-511, 514-507, doi:10.2144/000112729 (2008). Another part of lung were collected and stored in −80° C. after liquid nitrogen quick-freezing, RNA isolation (Code.R6934, OMEGA, USA), first cDNA reverse (Code.AT341, TransGen, China), SYBR mix (Code.AQ601, TransGen, China) for Q-PCR (LightCycle96, Roche) to verify several fibrosis-related genes mRNA level, such as, Col1a1 and Col1a2.

NASH diet-induced NASH = NASH diet-induced NASH model; format: in vivo, mouse; details: 2.5mpk i.p. daily for 6 weeks
Text: (§1) Methods: To evaluate the potential therapeutic effects of compound I-1 on liver disorders, including liver fat steatosis and accumulation, nonalcoholic fatty liver disease (NAFLD), nonalcoholic steatosis hepatitis (NASH), and liver fibrosis, three mice models (C57BL/6, male, 8 weeks old) were used. (I) NASH diet (Code.TD.160785, ENVIGO, USA)-induced NASH model: All mice were fed with NASH diet for 10 weeks. Mice were then randomly distributed into three groups, and each group was assigned to be injected daily with vehicle, compound I-1 (2.5mpk or 5mpk, i.p.), or DB1976 (2.5mpk, i.p, as a positive control) for another 6 weeks on continuous NASH diet. A group with normal regular diet was treated with vehicle as health control. (II) High-fat diet (HFD) combinate with CCl4 (lower dose)—induced NASH model. Mice were fed with normal regular diet or HFD (kcal fat 60%—D12492, research diets) for 10 weeks, then the HFD mice were divided into two groups randomly based on the rule of minimum weight differences. Each group was assigned to be injected with CCl4 (25% v/v in olive oil, 0.5 mL/kg body weight) or pure olive oil (i.p.) twice a week for 4 weeks. Compound 1-1 or vehicle (saline) were injected (i.p.) once daily for 4 weeks at the same time with CCl4 under continuous HFD. (III) CCl4 (higher dose)—induced liver fibrosis model. Liver fibrosis was induced by CCl4 injection (20% v/v in olive oil, 10 mL/kg body weight) twice a week for 6 weeks, compound I-1 or vehicle are also injected (i.p.) once daily for 6 weeks at the same time with CCl4 application. Ail the mice in the above-mentioned three models were observed daily. After the last day of treatment of all the models, mice were fasted overnight and euthanized. Serum was collected after centrifuging of the whole blood at 4 degrees, and blood biochemistry parameters were tested through automatic biochemical instrument (BS-240VET, Mindray). Part of liver tissues were fixed with paraformaldehyde, embedded with paraffin, and then sliced for H&E or Sirius red staining to check pathological features, and NAFLD scores. Kleiner, D. E. et al. Hepatology 41, 1313-1321, doi:10.1002/hep.20701 (2005). Part of liver tissues were used fresh, embedded in optimum cutting temperature compound, and sectioned. The sections were stained with 0.5% oil red 0 according to standard procedures after fixed in 4% paraformaldehyde in PBS. Another part of liver tissues were collected and stored in −80° C. after liquid nitrogen quick-freezing, RNA. isolation (Code.R6934, OMEGA., USA), first cDNA reverse (Code.AT341, TransGen, China), SYBR mix (Code.AQ601, TransGen, China) for Q-PCR (LightCycler®96, Roche) to verify genes mRNA level, such as, fibrosis-related genes, Col1a1 and Col1a2; inflammation-related genes, IL-6 and IL-1β.

[4] = system: HFD/CCL4-induced NASH and liver fibrosis; assay: High-fat diet (HFD) combined with CCl4 (lower dose)-induced NASH model; format: in vivo, mouse
Text: as §1

[5] = system: skin, liver and lung fibrosis; details: Wohlfahrt et al., Nature 2019; cited from earlier work
NASH = details: in vivo; Liu et al., J Hepatol 2020; cited from earlier work
PU.1 [6] = target: PU.1 (Homo sapiens, UniProt P17947); details: cited from earlier work
other ETS family numbers = details: cited from earlier work
[7] = system: T-ALL blast cells and TIM-3-high LICs; assay: Pten-null T-ALL mouse model, compound I-1 and/or rapamycin treatment
Experimental: To generate a Pten-null T-ALL mouse model, Pten was 40% deleted in mouse fetal liver hematopoietic stem cells (HSCs), followed by PI3K-AKT pathway activation, hematopoietic disorder and T-ALL development. In the T-ALL crisis stage, T-ALL blasts and LICs would infiltrate mouse hematopoietic organs and non-hematopoietic organs.
After treatment, hematopoietic and non-hematopoietic organ morphology of the mice was analyzed using hematoxylin-eosin (H&E) staining.

[8] = preventive model, 5mpk i.p., 4 weeks

Structure (SMILES): N=C(N)c1ccc2nc(-c3ccc(NC(=O)[C@H]4CCCN4C(=O)[C@H]4CCCN4C(=O)c4ccc(-c5nc6ccc(C(=N)N)cc6[nH]5)cc4)cc3)[nH]c2c1 [Compound I-2, (R)-1-((4-(6-carbamimidoyl-1H-benzo[d]imidazol-2-yl)benzoyl)-D-prolyl)-N-(4-(6-carbamimidoyl-1H-benzo[d]imidazol-2-yl)phenyl)pyrrolidine-2-carboxamide]
- inhibition of TIM-3 expression (PU.1 [1]): no obvious inhibition

Structure (SMILES): N=C(N)c1ccc2nc(-c3ccc(NC(=O)[C@@H]4CCCN4C(=O)[C@H]4CCCN4C(=O)c4ccc(-c5nc6ccc(C(=N)N)cc6[nH]5)cc4)cc3)[nH]c2c1 [Compound I-3, (S)-1-((4-(6-carbamimidoyl-1H-benzo[d]imidazol-2-yl)benzoyl)-D-prolyl)-N-(4-(6-carbamimidoyl-1H-benzo[d]imidazol-2-yl)phenyl)pyrrolidine-2-carboxamide]
- inhibition of TIM-3 expression (PU.1 [1]): no obvious inhibition

Structure (SMILES): N=C(N)c1ccc2nc(-c3ccc(-c4nc5ccc(C(=N)N)cc5[nH]4)[se]3)[nH]c2c1 [DB1976, reference compound]
- skin fibrosis progress ([2]; preventive model, 5mpk i.p. simultaneously with bleomycin for 4 weeks, vs bleomycin/vehicle): significantly prevented
- collagen deposition [2, 8]: reducing
- epidermal thickness [2, 8]: reducing
- mRNA level of Col1a1 and Col1a2 ([2]; preventive model, 5mpk i.p., 4 weeks, skin): decreasing
- bleomycin-induced skin fibrosis ([2]; therapeutic model, 3 weeks bleomycin then 3 weeks treatment, 5mpk): significantly alleviated and reversed
- pulmonary fibrosis progress (staining, Ashcroft scores, collagen deposition, Col1a1, Col1a2 mRNA) [3]: significantly prevented
- metabolic disturbance by NASH diet (body weight, liver fat, ALT, LDL-C, TC, IL-6, IL-1β, Col1a1, Col1a2) (NASH diet-induced NASH): potently alleviated
- serum triglyceride (TG) and total-cholesterol (TC) ([4]; fasting serum, i.p. once daily for 4 weeks): reduced
- body weight, gWAT and iWAT weight radio increased by HFD/CCL4 ([4]; i.p. once daily for 4 weeks with CCl4 under HFD): reversed
- collagen deposition (sirius red staining) and liver mRNA level of Col1a1 and Col1a2 ([4]; mouse, in vivo): reduced
- liver fibrosis induced by HFD/CCL4 application ([4]; mouse, in vivo): significantly alleviated
- skin, liver and lung fibrosis [5]: alleviated
- effects on NASH progress (liver steatosis, inflammation, fibrosis, glucose homeostasis) (NASH): beneficial effects
- potency as PU.1 inhibitor (PU.1 [6]): limited potency
- activity on other ETS family numbers (other ETS family numbers): inhibitory activity

Structure (SMILES): CO[C@H]1C[C@@H]2CC[C@@H](C)[C@@](O)(O2)C(=O)C(=O)N2CCCC[C@H]2C(=O)O[C@H]([C@H](C)C[C@@H]2CC[C@@H](O)[C@H](OC)C2)CC(=O)[C@H](C)/C=C(\C)[C@@H](O)[C@@H](OC)C(=O)[C@H](C)C[C@H](C)/C=C/C=C/C=C/1C [rapamycin, reference compound]
- proportion of blasts in bone marrow ([7]; after two days' treatment at blast crisis stage, without treatment 96.4%): 13.2%
- TIM-3 high LICs proportion ([7]; after two days' treatment, bone marrow, without treatment 33.5%): 22.2%
